ChEMBL document CHEMBL1201862, “PubChem BioAssay data set” (2004)
Activity calls are given as the source filed them.

Legend:
[1] = inhibitors of HIV Env-driven cell fusion, dose response, cherry-pick (AID 652057); assay type: functional, cell-based
Cytochrome P450 1A2 = biological target: T1, Cytochrome P450 1A2 (Homo sapiens, UniProt P05177);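 also: PubChem cytochrome P450 panel assay, CYP1A2 panel member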
T1 sequence (P05177 whole entry): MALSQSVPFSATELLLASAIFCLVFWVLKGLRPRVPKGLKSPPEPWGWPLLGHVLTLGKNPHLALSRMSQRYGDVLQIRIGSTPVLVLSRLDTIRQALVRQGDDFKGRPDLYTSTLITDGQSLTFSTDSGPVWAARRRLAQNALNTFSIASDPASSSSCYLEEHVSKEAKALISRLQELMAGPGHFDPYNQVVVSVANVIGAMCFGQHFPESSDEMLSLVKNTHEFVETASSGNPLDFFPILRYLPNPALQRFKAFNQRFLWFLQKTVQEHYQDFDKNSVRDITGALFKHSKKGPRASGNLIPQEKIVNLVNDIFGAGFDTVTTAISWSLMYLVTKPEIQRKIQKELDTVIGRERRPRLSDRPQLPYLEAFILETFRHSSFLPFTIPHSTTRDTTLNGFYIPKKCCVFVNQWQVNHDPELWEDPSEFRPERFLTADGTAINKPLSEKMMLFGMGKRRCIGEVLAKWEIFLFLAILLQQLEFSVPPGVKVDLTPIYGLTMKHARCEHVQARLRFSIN

[2] = Luminescence Cell-Based Dose Confirmation HTS to Identify Activators of 5'UTR Stem-Loop Driven Alpha-Synuclein mRNA Translation in H4 Neuroglioblastoma Cells. [Related pubchem assays: 1829 (Project Summary), 1814 (Primary HTS)]; assay type: functional
[3] = Luminescence Cell-Based Dose Response HTS to Identify Activators of Luciferase Translation or Activity in H4 […] Cells. [Related pubchem assays: 1829 (Project Summary), 1814 (Primary HTS)]; assay type: functional
H9c2 = test: cells; assay type: functional, cell-based; conditions: Rattus norvegicus, H9c2, Myocardium
[4] = biological target: T2, RNA-binding protein pos-1 (Caenorhabditis elegans, UniProt G5EF15); test: inhibitors of POS-1/mex-3 RNA binding, dose response, biochemical, fluorescence polarization (AID 1964);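 also: purified POS-1 fused to maltose binding protein made in E. coli; potency of compounds blocking POS-1 binding to fluorescent RNA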
T2 sequence (G5EF15 whole entry): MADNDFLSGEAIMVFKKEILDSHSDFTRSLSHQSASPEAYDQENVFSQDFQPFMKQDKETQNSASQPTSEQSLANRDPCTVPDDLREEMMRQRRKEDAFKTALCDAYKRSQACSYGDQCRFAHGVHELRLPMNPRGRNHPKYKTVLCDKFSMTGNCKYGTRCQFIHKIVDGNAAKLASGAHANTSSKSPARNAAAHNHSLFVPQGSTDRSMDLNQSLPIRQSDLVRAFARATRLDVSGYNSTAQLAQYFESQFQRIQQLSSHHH

[5] = biological target: T3, Zinc finger protein mex-5 (Caenorhabditis elegans, UniProt Q9XUB2); test: MEX-5/TCR-2 RNA interaction inhibitors, dose response, biochemical, C. elegans, fluorescence polarization (AID 1960)
T3 sequence (Q9XUB2 whole entry): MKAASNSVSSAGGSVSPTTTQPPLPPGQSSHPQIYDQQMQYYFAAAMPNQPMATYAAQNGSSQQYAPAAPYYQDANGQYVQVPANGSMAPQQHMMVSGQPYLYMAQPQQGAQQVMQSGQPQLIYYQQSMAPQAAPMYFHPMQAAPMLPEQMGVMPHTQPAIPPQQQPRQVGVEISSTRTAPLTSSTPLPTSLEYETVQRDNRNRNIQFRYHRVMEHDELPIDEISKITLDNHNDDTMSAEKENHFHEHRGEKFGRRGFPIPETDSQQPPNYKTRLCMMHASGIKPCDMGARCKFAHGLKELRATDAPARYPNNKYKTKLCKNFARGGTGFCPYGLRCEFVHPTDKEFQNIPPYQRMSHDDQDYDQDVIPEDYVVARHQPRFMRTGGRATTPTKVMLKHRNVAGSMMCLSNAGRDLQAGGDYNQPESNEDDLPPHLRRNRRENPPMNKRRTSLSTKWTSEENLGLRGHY

P388/ADR = test: cells; assay type: functional; conditions: Mus musculus, P388/ADR
SN12K1 = test: cells; assay type: functional; conditions: Homo sapiens, SN12K1
P388 = test: cells; assay type: functional; conditions: Mus musculus, P388
[6] = microbe, parasite or virus in culture; assay type: functional; conditions: Mycobacterium tuberculosis
[7] = HEp-2 cell cytotoxicity, dose response, cytotoxicity control for RSV inhibitor project, HTS (AID 2410); assay type: functional; conditions: human respiratory syncytial virus
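For IC50 in this document: confirmatory concentration-response retest of ultra-high-throughput screening hits for modulation of myocardial damage; cell death induced by hydrogen peroxide oxidative stress; compound pretreatment for 60 min then peroxide exposure for 2 h; potency is for protecting the cells against peroxide damage rather than for killing them.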

## Clc1ccc2c(c1)C1=C(C(c3ccncc3)O2)C(c2ccc(Br)cc2)n2ncnc2N1 (stereo not given)
[1]
  AC50: 11.2 µM (active)
Cytochrome P450 1A2
  AC50: 25.1 µM (inconclusive)

## CC(=O)C(=NNc1ccc2c(c1)OCO2)C(C)=O
[2]
  EC50: 13.9 µM (active)
[3]
  EC50: 27.8 µM (active)

## Cc1cc(NC(=O)C2CCCCC2)nc2c1c(=O)oc1ccccc12
H9c2
  IC50: 7.59 µM (active)

## Cc1ccc(S(=O)(=O)C(C#N)c2nc3ccccc3nc2N2CCC(C)CC2)cc1 (stereo not given)
[4]
  EC50: > 300 µM (inconclusive)
[5]
  EC50: 24.6 µM (active)

## C=CC1(C)CC(=O)C2(O)C(C)(O1)C(OC(C)=O)C(O)C1C(C)(C)CCC(O)C12C (stereo not given)
P388/ADR
  GI50: 43.9 µM (inactive)
SN12K1
  GI50: 65.3 µM (inactive)
P388
  GI50: 56.4 µM (inactive)

## CCC(=O)OC1(C)C(=O)C=C2C=C(CCCC(=O)OC)OC=C2C1=O (stereo not given)
[4]
  EC50: 27.8 µM (active)
[5]
  EC50: 22.8 µM (active)

## COc1ccc(C2C=C(c3ccc(Br)s3)Nc3ncnn32)cc1OC (stereo not given)
[4]
  EC50: 7.82 µM (active)
[5]
  EC50: 6.36 µM (inconclusive)

## COc1ccc(-n2cc(CNCCc3cscn3)c(-c3ccccc3Cl)n2)cc1
[6]
  CC50: > 40 µM (active)

## COc1ccc(N2CCN(c3ccnc4cc(Cl)ccc34)CC2)cc1
[6]
  CC50: > 40 µM (active)

## Nc1[nH]nc(C2CC2)c1N=Nc1ccc(Cl)cc1
[6]
  CC50: > 40 µM (active)

## COc1ccc(NC(=O)c2oc3ccc(S(=O)(=O)N4CCOCC4)cc3c2C)cc1
H9c2
  IC50: > 79 µM (inactive)

## CCC(=O)OC1(C)C(=O)C=C2C=C(CCCCNC(=O)OC(C)(C)C)OC=C2C1=O (stereo not given)
[4]
  EC50: 33.5 µM (active)
[5]
  EC50: 28.4 µM (active)

## COC(=O)c1ccccc1-n1c(CCC(=O)O)ccc1-c1ccccc1
[4]
  EC50: > 300 µM (not active)
[5]
  EC50: > 300 µM (not active)

## COc1ccccc1NC(=O)c1cc(-c2cc(OC)c(OC)c(OC)c2)nc2ccccc12
H9c2
  IC50: > 79 µM (inactive)

## Cc1ncc2c(n1)-c1cc(F)ccc1SC2
[7]
  CC50: 40.5 µM (active)

## O=C1c2ccccc2C(=O)N1CCCc1nc(-c2ccncc2)no1
[4]
  EC50: > 300 µM (not active)
[5]
  EC50: > 300 µM (not active)

## COC(=O)c1cc(OC)c(OC)cc1NC(=O)c1ccc(C)o1
H9c2
  IC50: > 79 µM (inactive)

## CCn1c(C)cc(/C=C2\C(=O)NC(=O)N(c3ccccc3C)C2=O)c1C
[4]
  EC50: > 300 µM (not active)
[5]
  EC50: > 300 µM (not active)

## Cc1cc(NC(=O)c2cccs2)cc(-c2nc3ncccc3o2)c1O
H9c2
  IC50: > 79 µM (inactive)
